Experimental data reported in paper PMC6582486, “Stapled EGFR peptide reduces inflammatory breast cancer and inhibits additional HER-driven models of cancer” (Journal of Translational Medicine, 2019).
Where a SMILES comes first, the peptide text is derived from it. Bridges are numbered along the chain shown (N, C = ends). [ ]: non-standard residue; d: D form. R8 = C=CCCCCCC[C@@](C)(N)C(=O)O; S5 = C=CCCC[C@](C)(N)C(=O)O

Legend:
[1] = tested on: SUM149 inflammatory breast cancer cells; type: cell-based; details: SUM149, 10 µM, 3 days
Experimental: 1000–3000 cells were plated in 96-well plates (Falcon; Corning, NY) and allowed to adhere for 24–48 h prior to therapeutic introduction. Compounds were added and incubated on cells for 3 days in serum-containing media, followed by 2 h treatment with MTT (Sigma M5655) with the resulting formazan solubilized in DMSO. Absorbance was read at 540 nm by plate reader (uQuant, Bio-Tek Instruments). P-values were calculated from a one-way ANOVA.
Fig. 4 SAH5-EJ1 effectively treats models of basal and inflammatory breast cancers while increasing survival. a Changes in tumor burden in breast cancer PDX mouse model TM01278 with various concentrations of intravenous SAH5-EJ1. Control represents water as a vehicle control. *p < 0.05 (Control vs 1 µg/g); **p < 0.01 (Control vs 1 µg/g and vs 10 µg/g). N = 6 for each condition. b Kaplan–Meier curve of breast PDX mouse model treated with control (blue) or either 1 or 10 µg/g SAH5-EJ1 (green and red, respectively) (red asterisks indicate time point at which mice could no longer receive injections due to site toxicity). Data shown represent mean. N = 6 for all groups. c Cell viability assay performed in SUM149 cells over 3 days comparing treatment with Sapitinib (blue) to SAH5-EJ1 (red) and SAH5-CP (grey). Solid lines represent 24 h; dashed lines represent 72 h. Data shown represent mean ± percent difference of assays performed in triplicate. d Kaplan–Meier curve of inflammatory breast cancer SUM149-injected mouse model treated with injected control (water) (blue) or either 0.5 or 5 µg/g SAH5-EJ1 (green and red, respectively). Data shown represent mean. N = 8 for all groups. e Changes in tumor burden in SUM149-generated tumors with various doses of SAH5-EJ1. Control represents water (blue). Arrow indicates transition from intravenous (IV) SAH5-EJ1 injections to intraperitoneal (IP) on day 66. **p < 0.01 (Control vs 0.5 µg/g and vs 5 µg/g). Data shown represent mean ± standard deviation. N = 8 for all groups. f Images of mouse tumors taken on Day 116. Arrowheads indicate tumor site. Representative images selected. […]

[2] = tested on: Erlotinib-resistant lung adenocarcinoma PDX TM00784; test: Lung cancer PDX mouse model TM00784; type: in vivo
Text: The following PDX mouse models were generated by Jackson Labs (Sacramento, CA): Breast TM01278; Grade 3 invasive ductal carcinoma, primary malignancy; EGFR inactivating R521K mutation; ERBB3 G1288A mutation in kinase domain with unknown effects on activity; increased EGFR/ERBB2/ERBB3. Lung TM00784; Grade 3 lung adenocarcinoma, primary malignancy; EGFR activating L858R mutation; increased EGFR, decreased ERBB2/ERBB3/ERBB4. All animals were maintained as outlined by University of Arizona Institutional Animal Care and Use Committee (IACUC) by the Experimental Mouse Shared Resource (EMSR).
Fig. 3 SAH5-EJ1 inhibits growth and prolongs survival in PDX models of lung cancer. a, b Cell viability assays performed in A549 or EGFR T790M mutated H1975 lung adenocarcinoma cells over 3 days comparing treatment with Sapitinib (blue lines) to SAH5-EJ1 (red lines). Solid lines represent 24 h; dashed lines represent 72 h. Data shown represent mean ± percent difference of assays performed in quadruplicate. c Reduction in tumor burden in Erlotinib-resistant lung cancer PDX mouse model TM00784 with various doses of intravenous SAH5-EJ1. Control represents water as a vehicle control. *p < 0.05 (Control vs 1 µg/g); **p < 0.01 (Control vs 1 µg/g and vs 10 µg/g). d Kaplan–Meier curve of lung PDX mouse model treated with control (blue line) or either 1 or 10 µg/g SAH5-EJ1 (green line and red line, respectively). Data shown represent mean. N = 6 for all groups

[3] = 28-day toxicity study: treatment observation frequency; type: in vivo, CD-1 mice; details: for Treatment observation: Animals with Signs: 28 days
Experimental: Toxicology was performed by IITRI. The study was conducted in compliance with the US Food and Drug Administration (FDA) good laboratory practice (GLP) Regulations (Code of Federal Regulations Title 21 Part 58) to evaluate the toxicokinetics, local tolerability, immunogenicity, and potential toxicity of SAH5-EJ1 following three times per week intravenous (IV) dosing for 28 days in mice. Male and female CD-1 IGS [Crl:CD1(ICR)] mice (135 per sex) were received from Wilmington, MA-based Charles River Laboratories, Inc.’s Kingston facility (Stone Ridge, NY).

Structure (SMILES): CC[C@H](C)[C@H](NC(=O)[C@H](Cc1c[nH]cn1)NC(=O)[C@H](CCCNC(=N)N)NC(=O)[C@H](CCCNC(=N)N)NC(=O)[C@H](CCCNC(=N)N)NC(=O)[C@H](CCSC)NC(=O)[C@H](Cc1ccccc1)NC(=O)[C@H](C)NC(=O)[C@H](CCCNC(=N)N)NC(=O)[C@H](C)NC(=O)[C@H](CCC(N)=O)NC(=O)[C@H](CCCNC(=N)N)NC(=O)[C@H](C)NC(=O)[C@H](C)NC(=O)[C@H](C)NC(=O)[C@H](CCCNC(=N)N)NC(=O)[C@H](C)NC(=O)[C@@H](N)Cc1ccc(O)cc1)C(=O)N[C@H](C(=O)N[C@@H](CCCNC(=N)N)C(=O)N[C@@H](CCCCN)C(=O)N[C@@H](CCCNC(=N)N)C(=O)N[C@]1(C)CCCCCCC=CCCC[C@@](C)(C(=O)N[C@@H](CCCNC(=N)N)C(=O)N[C@@H](CCC(=O)O)C(N)=O)NC(=O)[C@H](CCC(N)=O)NC(=O)[C@H](CC(C)C)NC(=O)[C@H](CC(C)C)NC(=O)[C@H](CCCNC(=N)N)NC(=O)[C@H](CCCNC(=N)N)NC(=O)[C@H](CC(C)C)NC1=O)C(C)C [SAH5-EJ1] (H-YARAAARQARAFMRRRHIVRKR[R8]LRRLLQ[S5]RE-NH2; staple 23-30)
- cell viability [1]: zero
- survival relative to control-treated mice ([2]; 1 µg/g (low dose) IV): 1.7 ×
- decrease in average tumor burden ([2]; 1 µg/g IV, N = 6): > 50%
- toxicity in the model ([2]; 1 or 10 µg/g IV): no detected toxicity
- Treatment observation: Discolored Urine (animals) ([3]; female, 5 mg/kg, 10 examined): 0
- Treatment observation: General (animals) ([3]; female, 5 mg/kg, 10 examined): 0
- Treatment observation: Hunched Posture (animals) ([3]; female, 5 mg/kg, 10 examined): 0
- Treatment observation: Hypoactive (animals) ([3]; female, 5 mg/kg, 10 examined): 0
- Treatment observation: Normal (animals) ([3]; female, 5 mg/kg, 10 examined): 10
- Treatment observation: Animals with Signs ([3]; female, 5 mg/kg, 10 examined): 0
- Treatment observation: Discolored Urine (animals) ([3]; female, 10 mg/kg, 10 examined): 0
- Treatment observation: General (animals) ([3]; female, 10 mg/kg, 10 examined): 0
- Treatment observation: Hunched Posture (animals) ([3]; female, 10 mg/kg, 10 examined): 0
- Treatment observation: Hypoactive (animals) ([3]; female, 10 mg/kg, 10 examined): 0
- Treatment observation: Normal (animals) ([3]; female, 10 mg/kg, 10 examined): 10
- Treatment observation: Animals with Signs ([3]; female, 10 mg/kg, 10 examined): 0
- Treatment observation: Discolored Urine (animals) ([3]; female, 15 mg/kg, 15 examined): 1
- Treatment observation: General (animals) ([3]; female, 15 mg/kg, 15 examined): 2
- Treatment observation: Hunched Posture (animals) ([3]; female, 15 mg/kg, 15 examined): 1
- Treatment observation: Hypoactive (animals) ([3]; female, 15 mg/kg, 15 examined): 2
- Treatment observation: Normal (animals) ([3]; female, 15 mg/kg, 15 examined): 15
- Treatment observation: Animals with Signs ([3]; female, 15 mg/kg, 15 examined): 2
- Treatment observation: Discolored Urine (animals) ([3]; male, 5 mg/kg, 10 examined): 0
- Treatment observation: General (animals) ([3]; male, 5 mg/kg, 10 examined): 0
- Treatment observation: Normal (animals) ([3]; male, 5 mg/kg, 10 examined): 10
- Treatment observation: Rough Coat (animals) ([3]; male, 5 mg/kg, 10 examined): 0
- Treatment observation: Animals with Signs ([3]; male, 5 mg/kg, 10 examined): 0
- Treatment observation: Discolored Urine (animals) ([3]; male, 10 mg/kg, 10 examined): 0
- Treatment observation: General (animals) ([3]; male, 10 mg/kg, 10 examined): 0
- Treatment observation: Normal (animals) ([3]; male, 10 mg/kg, 10 examined): 10
- Treatment observation: Rough Coat (animals) ([3]; male, 10 mg/kg, 10 examined): 0
- Treatment observation: Animals with Signs ([3]; male, 10 mg/kg, 10 examined): 0
- Treatment observation: Discolored Urine (animals) ([3]; male, 15 mg/kg, 15 examined): 1
- Treatment observation: General (animals) ([3]; male, 15 mg/kg, 15 examined): 2
- Treatment observation: Normal (animals) ([3]; male, 15 mg/kg, 15 examined): 15
- Treatment observation: Rough Coat (animals) ([3]; male, 15 mg/kg, 15 examined): 2
- Treatment observation: Animals with Signs ([3]; male, 15 mg/kg, 15 examined): 2
